Experimental data reported in patent EP0267740A1, “Naphthyridine and pyridopyrazine compounds and pharmaceutical usage thereof” (SCHERING CORPORATION, priority 1986, dated 1988).

Columns and labels:
[1] = Reversed Passive Arthus Reaction (RPAR) paw technique, anti-inflammatory test; type: in vivo, Male Lewis inbred albino rats; conditions: Oral Dose 25 mg/kg by gavage in methyl cellulose, rat paw volume 2 hours post-challenge
Method: The compounds of this invention are also effective for the treatment of inflammation; thus they are useful for the treatment of arthritis, bursitis, tendonitis, gout and other inflammatory conditions. […] The potency of the compounds described and claimed herein for treatment of inflammatory conditions is determined using indomethacin as the standard.
Male Lewis inbred albino rats weighing 180-220 grams obtained from Charles River Breeding Laboratories are used in these experiments. The rats are housed 3 animals/cage and food and water are allowed ad libitum. The animals are numbered 1-3 in each cage and color marked for identification purposes.
All reagents and drugs are prepared just prior to the study. Crystallized and lyophilized bovine serum albumin (BSA), obtained from Sigma Chemical Company, is solubilized without shaking in cold sterile pyrogen free saline (10 mg/ml). […]
Groups of animals (6/group) are dosed with drug in MC by gavage one hour prior to sensitization with BSA. […] The volume of mercury displaced is converted to weight and recorded. […] Paw volumes are also recorded with a plethysmograph during the development of the inflammation at 2 and 4 hours post-challenge, and the results are shown in Table B below.

[2] = tested on: release of SRS-A from sensitized guinea pig lung fragments; experiment: Measurement of SRS-A release from sensitized guinea pig lung fragments after antigen (ovalbumin) challenge; type: cell-based; conditions: Dose (Molar Conc.) 1 x 10^-5; lung fragments incubated with compound 12 min at 37°C, challenge with 20µg ovalbumin/ml
Method: The anti-allergy property of the compounds of this invention is evaluated by measuring the inhibition of the release of the mediator SRS-A (slow reacting substance of anaphylaxis) from sensitized guinea pig lung fragments after antigen challenge.
The release of SRS-A and histamine was studied in lungs from actively sensitized guinea pigs. Male Hartley guinea pigs (250-300 g, obtained from Charles River or Dutchland Farms) were sensitized with 5 mg ovalbumin injected intraperitoneally and 5 mg subcutaneously in 1 ml saline on day one, and 5 mg ovalbumin injected intraperitoneally on day four. The sensitized animals were used 3-4 weeks later.
Sensitized guinea pigs were killed by a blow to the head and the lungs removed and cleaned of visable connective tissue, trachea and large blood vessels. The lungs from individual animals were sliced into fragments approximately 1 mm in thickness using a McIlwain chopper and then washed with oxygenated Tyrode's buffer. Weighed aliquots (approximately 400 mg wet weight) of lung were transferred into vials containing 2 ml of fresh Tyrode's solution and incubated in the presence or absence of test compound for 12 min at 37°C followed by challenge of the tissue with 20µg ovalbumin/ml (final concentration). After an additional 15 min incubation, the vials were cooled to 4°C and 1.5 ml of clear supernatant media was removed and mixed with 6 ml of cold 100% ethanol. This mixture was thoroughly vortexed and kept at -15°C for 30 min to allow precipitation of protein. The samples were then centrifuged at 1000 x g for 15 min at 2°C and the clear supernatant fluid removed into polyethylene tubes and taken to dryness at 50°C under a stream of N₂ gas. The samples were stored at -70°C until assayed for SRS-A by bioassay or radioimmune assay.

Row | Structure (SMILES) | % Inhibition 2 hrs. [1] | % Inhibition (INHIBITION OF SRS-A RELEASE FROM GUINEA PIG LUNG) [2]
1 | CCCCc1c(O)c2cccnc2n(-c2cccnc2)c1=O | 64% | 33%
2 | O=C1CCN(c2ccccc2)N1 [1-phenyl-3-pyrazolidinone, reference compound] | – | 41%
3 | CCCCc1c(O)c2cccnc2n(-c2ccc3c(c2)CCC3)c1=O [3-(n-BUTYL)-4-HYDROXY-1-(5-INDANYL)-1,8-NAPHTHYRIDIN-2(1H)-ONE] | 23% | 55%
